We go through 6 molecules from patent EP1330253B1, “USE OF BIOACTIVE FRACTION FROM COW URINE DISTILLATE ('GO MUTRA') AS A BIO-ENHANCER OF ANTI-INFECTIVE, ANTI-CANCER AGENTS AND NUTRIENTS” (Council of Scientific and Industrial Research, priority 2000, dated 2002).

The subject of one series is Mycobacterium smegmatis. The series is described as follows: Bio-enhancement of anti-infective agents, broth assay with viable cell count. Format: cell-based. Particulars: for Fold enhancement in antibiotic activity: cow urine distillate 1 µl/ml. Here is the method:
(§1) • a) The minimum inhibitory concentration (MIC) of antibiotic is determined against Escherichia coli (equivalent of ATCC 10536), Bacillus subtilis (equivalent of ATCC 6015) and Mycobacterium smegmatis (equivalent of ATCC 10231) in broth and disc diffusion assay. • b) The antibiotics agents at concentrations 1/4, 1/3, 1/2 and equal to MIC are added alone and in combination with the test compound at varying concentrations on disc and in broth to evaluate the comparative inhibition. • c) These combination showing significant advantage or higher activity than antibiotic alone in terms of enhanced inhibition of bacterial growth (large inhibition zone in disc diffusion and affectivity of lower concentration in broth assay) are picked up for future testing. • d) In broth assay the activity is quantified by counting number of viable cells in a given treatment and converted in fold enhancement by combination compared to antibiotic / drug alone in the killing percentage of cells. • e) The pre-treatment assay followed to determine whether the compound is required along with antibiotic to enhance its activity or even its withdrawal after treatment or prior to antibiotic treatment would benefit. For this, the cells are treated with compound for 4 to 8 hours and then washed free of it by centrifugation and washing in sterile water. This was followed by treatment with antibiotic as in steps b to d.
(§2) In the next step of elucidation of the enhancer action, the applicants experimented with the killing activities of different antibiotics against the bacteria singly and in combination with the test component (cow urine distillate) following the method described above. These experiments are being described in the following examples. […] In all the experiments the cow urine distillate concentration was kept at 1 µl/ml, unless it is specifically mentioned.

For the next series, the system named is Bacillus subtilis. Described as above. Format: cell-based. The conditions noted are these: for Fold enhancement in antibiotic activity: cow urine distillate 1 µl/ml. The protocol: as §1, §2
For a further series, the system named is Escherichia coli. The series is described as above. The class given is cell-based. Particulars: for Fold enhancement in antibiotic activity: cow urine distillate 1 µl/ml. The protocol: as §1, §2
For series [1] the following is noted: for OD measured as Absorbance (specific to the compound maxima) across the membrane in receiving tube after 1 hr / OD measured as Absorbance (specific to the compound maxima) across the membrane in receiving tube after 2 hr / OD measured as Absorbance (specific to the compound maxima) across the membrane in receiving tube after 3 hr / OD measured as Absorbance (specific to the compound maxima) across the membrane in receiving tube after 4hr / OD measured as Absorbance (specific to the compound maxima) across the membrane in receiving tube after 5 hr / OD measured as Absorbance (specific to the compound maxima) across the membrane in receiving tube after 6 hr: Rifampicin 1mg/ml, fraction Gm-IV 1.0µg/ml.

The test system of series [2] is oxyR mutant of bacterium Escherichia coli. The class given is cell-based. The conditions noted are these: for Fold enhancement in isoniazid/H2O2 activity: cow urine distillate 0.001 µl/ml. Here is the method: For this, the cells are treated with compound for 4 to 8 hours and then washed free of it by centrifugation and washing in sterile water. This was followed by treatment with antibiotic as in steps b to d.

A short description of series [3]: Bioenhancement of antifungal agent, minimum inhibitory concentration. The class given is cell-based. Particulars: active fraction Gm-IV kept at 10 µg/ml in the combination.
A further series relates to MCF-7. Put plainly: Bio-enhancement of anti-cancer agents, viable cell count. The class given is cell-based. The conditions noted are these: distillate at 1 µl/ml. Here is the method:
• a) MCF-7 (Breast cancer commercial cell line obtained from National Center for Cell Sciences (NCCS), Pune) is inoculated at a density of about 0.1 X 10^6 cells in MEM medium in the wells of 24 well plate. • b) This is replaced with fresh medium after 18 hours in each well. • c) The test component (s) is added at desired concentrations in different wells just after the medium replacement. • d) Observations are recorded on the cell count after 36 hours for which the allowing steps are required. • i. The medium is removed from the wells. • ii. The wells are rinsed with 1ml PBS (Phosphate buffer saline). • iii. To each well 500 µl of freshly prepared trypsin (0.1% in PBS) solution is added. • iv. Trypsin solution is removed after 30 seconds and the plate is gently tapped till the cells are released from the plate surface. • v. Fresh 1 ml of MEM growth medium is added and agitated with a pipette to obtain a cell suspension. • vi. 10 µl of cell suspension is taken on the haemocytometer and a cover glass is placed over the counting chamber. • vii. The number of viable cells is counted in 5 big squares and the readings are taken from 5 microscopic fields to determine the average. • viii. The cell count (titer per ml) in the original sample is then calculated as average count X 10^3.

Setting [4] is: antibiotic 0.5 µg/ml + cow urine distillate 1 µl/ml.
The mark [5] stands for this setting: antibiotic 0.1 µg/ml + cow urine distillate 1 µl/ml.
[6] abbreviates: antibiotic 0.05 µg/ml + cow urine distillate 1 µl/ml.

Where two headings read alike, the source gives them in different places.

Take `CC1(C)S[C@@H]2[C@H](NC(=O)[C@H](N)c3ccccc3)C(=O)N2[C@H]1C(=O)O` [Ampicillin]: the “Survival fraction of viable cells upon treatment with antibiotic alone” value in the series on Mycobacterium smegmatis (antibiotic 0.5 µg/ml) amounted to 0.07; in the series on Bacillus subtilis (antibiotic 0.1 µg/ml), 1.00; with Bacillus subtilis (antibiotic 0.5 µg/ml), 0.18; with Escherichia coli (antibiotic 4 µg/ml), 1.11; with Escherichia coli (antibiotic 6 µg/ml) it was 0.09; in the series on Escherichia coli (antibiotic 8 µg/ml), 0.05. For the same molecule, the “Survival fraction of viable cells upon treatment with antibiotic + cow urine distillate combination” value is listed as 0.006 with Mycobacterium smegmatis (setting [4]), 0.3 in the series on Bacillus subtilis (setting [5]) and 0.06 in the series on Bacillus subtilis (setting [4]). For the same molecule, the “Fold enhancement in antibiotic activity” value in the series on Mycobacterium smegmatis (antibiotic 0.5 µg/ml) turned out to be 11.6; with Bacillus subtilis (antibiotic 0.1 µg/ml) it was 3.3; with Bacillus subtilis (antibiotic 0.5 µg/ml), 3.0; in the series with Escherichia coli (antibiotic 4 µg/ml), 1.85; in the series on Escherichia coli (antibiotic 6 µg/ml), 4.50; in the series with Escherichia coli (antibiotic 8 µg/ml) it was 5.00. The “Survival fraction of viable cells upon treatment with amlibiotic + cow urine distillate combination” value amounted to 0.60 in the series on Escherichia coli (antibiotic 4 µg/ml + cow urine distillate 1 µl/ml), 0.02 in the series with Escherichia coli (antibiotic 6 µg/ml + cow urine distillate 1 µl/ml) and 0.01 in the series with Escherichia coli (antibiotic 8 µg/ml + cow urine distillate 1 µl/ml).
Consider `CO[C@H]1/C=C/O[C@@]2(C)Oc3c(C)c(O)c4c(O)c(c(/C=N/N5CCN(C)CC5)c(O)c4c3C2=O)NC(=O)/C(C)=C\C=C\[C@H](C)[C@H](O)[C@@H](C)[C@@H](O)[C@@H](C)[C@H](OC(C)=O)[C@@H]1C` [Rifampicin], for which the “OD measured as Absorbance (specific to the compound maxima) across the membrane in receiving tube after 1 hr” value in series [1] (A340) came out at 0.0097; in series [1] (A475), 0.0177. Further, the “OD measured as Absorbance (specific to the compound maxima) across the membrane in receiving tube after 2 hr” value is recorded as 0.0214 in series [1] (A340) and 0.0284 in series [1] (A475). In addition, the “OD measured as Absorbance (specific to the compound maxima) across the membrane in receiving tube after 3 hr” value in series [1] (A340) is 0.0334; in series [1] (A475), 0.0309. Further, the “OD measured as Absorbance (specific to the compound maxima) across the membrane in receiving tube after 4hr” value is on record as 0.0771 in series [1] (A340) and 0.0412 in series [1] (A475). The “OD measured as Absorbance (specific to the compound maxima) across the membrane in receiving tube after 5 hr” value amounted to 0.0858 in series [1] (A340) and 0.0484 in series [1] (A475). Besides, the “OD measured as Absorbance (specific to the compound maxima) across the membrane in receiving tube after 6 hr” value was found to be 0.0910 in series [1] (A340) and 0.0496 in series [1] (A475). In addition, the “enhancement of bioavailability across the mammalian gut membrane” value in series [1] (with the sample, goat intestine, within 2 hours, keeps increasing upto 4 hours) was “enhancement of bioavailability”. Besides, the “Survival fraction of viable cells upon treatment with antibiotic alone” value in the series on Mycobacterium smegmatis (antibiotic 0.05 µg/ml) is listed as 0.008; in the series with Mycobacterium smegmatis (antibiotic 0.1 µg/ml), 0.006; in the series on Bacillus subtilis (antibiotic 0.005 µg/ml) it was 1.1; in the series on Bacillus subtilis (antibiotic 0.05 µg/ml), 0.03; in the series with Escherichia coli (antibiotic 10 µg/ml) it was 0.86; in the series with Escherichia coli (antibiotic 30 µg/ml) it was 0.05. Further, the “Survival fraction of viable cells upon treatment with antibiotic + cow urine distillate combination” value in the series on Mycobacterium smegmatis (setting [6]) is reported as 0.0001; in the series on Mycobacterium smegmatis (setting [5]) it was 0.0036; in the series on Bacillus subtilis (antibiotic 0.005 µg/ml + cow urine distillate 1 µl/ml), 0.28; in the series with Bacillus subtilis (setting [6]), 0.01. The “Fold enhancement in antibiotic activity” value with Mycobacterium smegmatis (antibiotic 0.05 µg/ml) is recorded as 80; in the series with Mycobacterium smegmatis (antibiotic 0.1 µg/ml), 1.5; in the series on Bacillus subtilis (antibiotic 0.005 µg/ml), 5.5; in the series on Bacillus subtilis (antibiotic 0.05 µg/ml) it was 3.0; in the series on Escherichia coli (antibiotic 10 µg/ml) it was 5.0; with Escherichia coli (antibiotic 30 µg/ml), 7.1. Moreover, the “Survival fraction of viable cells upon treatment with amlibiotic + cow urine distillate combination” value was found to be 0.17 in the series on Escherichia coli (antibiotic 10 µg/ml + cow urine distillate 1 µl/ml) and 0.007 in the series on Escherichia coli (antibiotic 30 µg/ml + cow urine distillate 1 µl/ml).
As to `NNC(=O)c1ccncc1` [Isoniazid], the Viable cell count is reported as 7.5 x10^7 in series [2] (250µg/ml) and 0.99 x10^7 in series [2] (250µg/ml + cow urine distillate 0.001 µl/ml). In addition, the “Fold enhancement in isoniazid/H2O2 activity” value in series [2] (250µg/ml) is given as 7.5. Moreover, the “enhancement action for INH” value in series [2] (distillate at 10-50 thousand-fold dilution in the final volume of culture, organism not stated) is given as “showed enhancement action”.
Consider `Clc1ccccc1C(c1ccccc1)(c1ccccc1)n1ccnc1` [Clotrimazol], for which, in series [3], the Fold enhancement is 0.0 and the “Minimum inhibitory Concentration (MIC)” value was determined as 4.40 µg/mL.
Take `CC(=O)O[C@H]1C(=O)[C@@]2(C)[C@H]([C@H](OC(=O)c3ccccc3)[C@]3(O)C[C@H](OC(=O)[C@H](O)[C@@H](NC(=O)c4ccccc4)c4ccccc4)C(C)=C1C3(C)C)[C@]1(OC(C)=O)CO[C@@H]1C[C@@H]2O` [Taxol, Paclitaxel]: the “enhancement in the activity of taxol” value in the series on MCF-7 is on record as “at least 5 folds”.
In the case of `OO` [Hydrogen peroxide (H2O2), Hydrogen peroxide], in series [2] (0.003 %v/v), the Viable cell count was 7.14 x10^7 and the “Fold enhancement in isoniazid/H2O2 activity” value is recorded as 5.9. For the same molecule, the Viable cell count in series [2] (0.003 %v/v + cow urine distillate 0.001 µl/ml) was 1.2 x10^7.
